US6747148B2, “Sulfonamide derivatives as inhibitors of bone resorption and as inhibitors of cell adhesion” (Hoechst Marion Roussel Deutschland GmbH, priority 1998, dated 2004)

Target: T1, vitronectin receptor αvβ3 (Homo sapiens, UniProt P05106+P06756)
T1 construct: expressed in transfected cells
Assay: Inhibition of binding of 293 cells to human vitronectin (Vn/293 cell test)
Type: cell-based
Conditions: 293 cells cotransfected with αv and β3 subunits; plate coated with human vitronectin; 90 minutes at 37° C.
Description: Test for the Measurement of the Inhibition of Binding of 293 Cells to Human Vitronectin (Vn/293 Cell Test)
1. Purification of Human Vitronectin
Human vitronectin is isolated from human plasma and purified by affinity chromatography according to the method of Yatohyo et al., Cell Structure and Function […]: 281-292 (1988).
293 cells, a human embryonic kidney cell line, which are cotransfected with DNA sequences for the αv and β3 subunits of the vitronectin receptor αvβ3, are selected for a high rate of expression (>500,000 αvβ3 receptors/cell) according to the FACS method. The selected cells are cultured and sorted again by means of FACS in order to obtain a stable cell line (15 D) with expression rates >1,000,000 copies of αvβ3 per cell.
A Linbro 96-well tissue culture plate with a flat bottom is coated overnight at 4° C. with human vitronectin (0.01 mg/ml, 0.05 ml/well) in phosphate-buffered saline solution (PBS) and then blocked with 0.5% strength BSA (bovine serum albumin). Solutions of the test substances from 10^−10 mol/l to 2×10^−3 mol/l in glucose-containing DMEM medium are prepared and 0.05 ml/well of the solution are added to the plate in each case. The cells which express high levels of αvβ3 (for example 15 D) are suspended in glucose-containing DMEM medium and the suspension is adjusted to a content of 25,000 cells/0.05 ml of medium. 0.05 ml of this cell suspension is added to each well and the plate is incubated at 37° C. for 90 minutes. The plate is washed three times with warm PBS in order to remove unbound cells. The bound cells are lyzed in citrate buffer (25 mM, pH 5.0) which contains 0.25% Triton X-100. The hexoseamidase substrate p-nitrophenyl-N-acetyl-β-D-glucosaminide is then added and the plate is incubated at 37° C. for 90 minutes. The reaction is stopped with a glycine (50 mM)/EDTA (5 mM) buffer (ph 10.4), and the absorption of each well is measured at 405-650 nm. The data are analyzed according to standard processes.

T1 sequence (P06756 31-889 limits assumed): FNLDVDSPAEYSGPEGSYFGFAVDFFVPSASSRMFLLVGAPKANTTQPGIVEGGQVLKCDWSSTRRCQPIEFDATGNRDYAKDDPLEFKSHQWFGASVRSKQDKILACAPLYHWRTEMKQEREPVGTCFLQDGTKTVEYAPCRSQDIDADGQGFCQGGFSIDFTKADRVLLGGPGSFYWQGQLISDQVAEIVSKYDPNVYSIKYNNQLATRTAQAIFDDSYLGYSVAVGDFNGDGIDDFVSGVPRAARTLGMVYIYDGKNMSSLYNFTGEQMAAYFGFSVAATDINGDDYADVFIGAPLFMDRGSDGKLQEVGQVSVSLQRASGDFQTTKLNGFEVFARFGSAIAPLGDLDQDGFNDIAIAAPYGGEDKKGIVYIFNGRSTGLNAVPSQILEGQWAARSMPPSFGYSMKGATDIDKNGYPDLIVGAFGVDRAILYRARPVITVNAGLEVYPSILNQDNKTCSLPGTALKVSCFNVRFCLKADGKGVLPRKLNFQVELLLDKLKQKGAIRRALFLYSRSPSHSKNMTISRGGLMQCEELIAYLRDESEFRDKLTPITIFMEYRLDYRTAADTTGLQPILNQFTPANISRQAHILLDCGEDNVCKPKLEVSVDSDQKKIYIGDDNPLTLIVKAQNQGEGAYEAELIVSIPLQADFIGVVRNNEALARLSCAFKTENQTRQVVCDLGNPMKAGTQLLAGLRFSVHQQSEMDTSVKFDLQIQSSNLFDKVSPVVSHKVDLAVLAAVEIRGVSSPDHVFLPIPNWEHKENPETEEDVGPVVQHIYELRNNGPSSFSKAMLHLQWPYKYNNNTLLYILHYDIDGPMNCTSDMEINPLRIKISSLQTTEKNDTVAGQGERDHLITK
T1 sequence (P06756 891-1048 partner limits assumed): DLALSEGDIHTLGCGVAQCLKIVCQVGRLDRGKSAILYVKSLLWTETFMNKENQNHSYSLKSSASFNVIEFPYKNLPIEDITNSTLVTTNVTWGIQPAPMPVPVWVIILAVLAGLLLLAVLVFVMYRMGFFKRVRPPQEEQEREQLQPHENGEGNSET
T1 sequence (P05106 27-788): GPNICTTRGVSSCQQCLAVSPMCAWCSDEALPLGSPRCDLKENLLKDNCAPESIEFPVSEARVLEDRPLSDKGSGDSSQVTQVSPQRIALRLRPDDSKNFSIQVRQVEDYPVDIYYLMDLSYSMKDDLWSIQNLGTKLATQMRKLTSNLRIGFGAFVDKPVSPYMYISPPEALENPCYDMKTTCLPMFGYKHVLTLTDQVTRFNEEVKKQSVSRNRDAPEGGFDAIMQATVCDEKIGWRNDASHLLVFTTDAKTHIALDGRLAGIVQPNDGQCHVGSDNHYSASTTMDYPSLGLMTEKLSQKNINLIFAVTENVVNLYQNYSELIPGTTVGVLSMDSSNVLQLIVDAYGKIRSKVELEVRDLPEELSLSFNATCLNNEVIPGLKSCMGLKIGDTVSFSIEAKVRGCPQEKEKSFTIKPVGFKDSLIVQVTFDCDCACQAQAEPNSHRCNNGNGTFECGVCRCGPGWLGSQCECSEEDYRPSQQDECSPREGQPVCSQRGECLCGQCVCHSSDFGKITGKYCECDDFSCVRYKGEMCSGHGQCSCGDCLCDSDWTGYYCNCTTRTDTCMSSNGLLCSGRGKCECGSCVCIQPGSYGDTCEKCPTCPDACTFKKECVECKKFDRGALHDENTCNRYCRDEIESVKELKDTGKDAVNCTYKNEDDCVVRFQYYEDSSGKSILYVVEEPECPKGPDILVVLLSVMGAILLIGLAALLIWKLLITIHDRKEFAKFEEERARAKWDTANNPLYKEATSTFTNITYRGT

Row | SMILES | IC50 [nM]
1 | N#Cc1ccccc1S(=O)(=O)N[C@@H](CNC(=O)c1ccc(CCC(=O)NC2=NCCCN2)cc1)C(=O)O [Example 11, (2S)-2-(2-Cyano-benzenesulfonylamino)-3-(4-(2-(1,4,5,6-tetrahydropyrimidin-2-ylcarbamoyl)-ethyl)-benzoylamino)-propionic acid] | 24
2 | CCCc1ccc(S(=O)(=O)N[C@@H](CNC(=O)c2ccc(CCC(=O)NC3=NCCCN3)cc2)C(=O)O)cc1 [Example 8, (2S)-2-(4-Propyl-benzenesulfonylamino)-3-(4-(2-(1,4,5,6-tetrahydropyrimidin-2-ylcarbamoyl)-ethyl)-benzoylamino)-propionic acid] | 20
3 | O=C(CCc1ccc(C(=O)NC[C@H](NS(=O)(=O)/C=C/c2ccccc2)C(=O)O)cc1)NC1=NCCCN1 [Example 7, (2S)-2-(2-Phenyl-ethenesulfonylamino)-3-(4-(2-(1,4,5,6-tetrahydropyrimidin-2-ylcarbamoyl)-ethyl)-benzoylamino)-propionic acid] | 28
4 | O=C(CCc1ccc(C(=O)NC[C@H](NS(=O)(=O)c2cccc(Cl)c2)C(=O)O)cc1)NC1=NCCCN1 [Example 14, (2S)-2-(3-Chloro-benzenesulfonylamino)-3-(4-(2-(1,4,5,6-tetrahydropyrimidin-2-ylcarbamoyl)-ethyl)-benzoylamino)-propionic acid] | 10
5 | CC(C)(C)c1ccc(S(=O)(=O)N[C@@H](CNC(=O)c2ccc(CCC(=O)NC3=NCCCN3)cc2)C(=O)O)cc1 [Example 5, (2S)-2-(4-tert-Butyl-benzenesulfonylamino)-3-(4-(2-(1,4,5,6-tetrahydropyrimidin-2-ylcarbamoyl)-ethyl)-benzoylamino)-propionic acid] | 18
6 | O=C(CCc1ccc(C(=O)NC[C@H](NS(=O)(=O)c2ccccc2)C(=O)O)cc1)NC1=NCCCN1 [Example 17, (2S)-2-Benzenesulfonylamino-3-(4-(2-(1,4,5,6-tetrahydropyrimidin-2-ylcarbamoyl)-ethyl)-benzoylamino)-propionic acid] | 9
7 | O=C(CCc1ccc(C(=O)NC[C@H](NS(=O)(=O)c2cccc3cccnc23)C(=O)O)cc1)NC1=NCCCN1 [Example 2, (2S)-2-(Quinoline-8-sulfonylamino)-3-(4-(2-(1,4,5,6-tetrahydropyrimidin-2-ylcarbamoyl)-ethyl)-benzoylamino)-propionic acid] | 52
8 | CC(=O)Nc1ccc(S(=O)(=O)N[C@@H](CNC(=O)c2ccc(CCC(=O)NC3=NCCCN3)cc2)C(=O)O)cc1 [Example 3, (2S)-2-(4-Acetylamino-benzenesulfonylamino)-3-(4-(2-(1,4,5,6-tetrahydropyrimidin-2-ylcarbamoyl)-ethyl)-benzoylamino)-propionic acid] | 27
9 | O=C(CCc1ccc(C(=O)NC[C@H](NS(=O)(=O)c2ccc(C(F)(F)F)cc2)C(=O)O)cc1)NC1=NCCCN1 [Example 22, (2S)-3-(4-(2-(1,4,5,6-Tetrahydropyrimidin-2-ylcarbamoyl)-ethyl)-benzoylamino)-2-(4-trifluoromethyl-benzenesulfonylamino)-propionic acid] | 10
10 | CCCCS(=O)(=O)N[C@@H](CNC(=O)c1ccc(CCC(=O)NC2=NCCCN2)cc1)C(=O)O [Example 23, (2S)-2-(Butane-1-sulfonylamino)-3-(4-(2-(1,4,5,6-tetrahydropyrimidin-2-ylcarbamoyl)-ethyl)-benzoylamino)-propionic acid] | 30
11 | COc1ccc(S(=O)(=O)N[C@@H](CNC(=O)c2ccc(CCC(=O)NC3=NCCCN3)cc2)C(=O)O)cc1 [Example 16, (2S)-2-(4-Methoxy-benzenesulfonylamino)-3-(4-(2-(1,4,5,6-tetrahydropyrimidin-2-ylcarbamoyl)-ethyl)-benzoylamino)-propionic acid] | 26
12 | CC1(C)C2CCC1(CS(=O)(=O)N[C@@H](CNC(=O)c1ccc(CCC(=O)NC3=NCCCN3)cc1)C(=O)O)C(=O)C2 (stereo partly drawn) [Example 12, (2S)-2-(7,7-Dimethyl-2-oxo-bicyclo[2.2.1]hept-1-ylmethanesulfonylamino)-3-(4-(2-(1,4,5,6-tetrahydropyrimidin-2-ylcarbamoyl)-ethyl)-benzoylamino)-propionic acid] | 27
13 | CS(=O)(=O)N[C@@H](CNC(=O)c1ccc(CCC(=O)NC2=NCCCN2)cc1)C(=O)O [Example 24, (2S)-2-Methanesulfonylamino-3-(4-(2-(1,4,5,6-tetrahydropyrimidin-2-ylcarbamoyl)-ethyl)-benzoylamino)-propionic acid] | 100
14 | CCCS(=O)(=O)N[C@@H](CNC(=O)c1ccc(CCC(=O)NC2=NCCCN2)cc1)C(=O)O [Example 6, (2S)-2-(Propane-1-sulfonylamino)-3-(4-(2-(1,4,5,6-tetrahydropyrimidin-2-ylcarbamoyl)-ethyl)-benzoylamino)-propionic acid] | 32
15 | CCCCOc1ccc(S(=O)(=O)N[C@@H](CNC(=O)c2ccc(CCC(=O)NC3=NCCCN3)cc2)C(=O)O)cc1 [Example 10, (2S)-2-(4-Butoxy-benzenesulfonylamino)-3-(4-(2-(1,4,5,6-tetrahydropyrimidin-2-ylcarbamoyl)-ethyl)-benzoylamino)-propionic acid] | 29
16 | O=C(CCc1ccc(C(=O)NC[C@H](NS(=O)(=O)c2ccc3ccccc3c2)C(=O)O)cc1)NC1=NCCCN1 [Example 20, (2S)-2-(Naphthalene-2-sulfonylamino)-3-(4-(2-(1,4,5,6-tetrahydropyrimidin-2-ylcarbamoyl)-ethyl)-benzoylamino)-propionic acid] | 5
17 | O=C(CCc1ccc(C(=O)NC[C@H](NS(=O)(=O)c2cccc3ccccc23)C(=O)O)cc1)NC1=NCCCN1 [Example 1, (2S)-2-(Naphthalene-1-sulfonylamino)-3-(4-(2-(1,4,5,6-tetrahydropyrimidin-2-ylcarbamoyl)-ethyl)-benzoylamino)-propionic acid] | 6
18 | O=C(CCc1ccc(C(=O)NC[C@H](NS(=O)(=O)c2ccc(-c3ccccc3)cc2)C(=O)O)cc1)NC1=NCCCN1 [Example 19, (2S)-2-(Biphenyl-4-sulfonylamino)-3-(4-(2-(1,4,5,6-tetrahydropyrimidin-2-ylcarbamoyl)-ethyl)-benzoylamino)-propionic acid] | 38
19 | CC(C)CS(=O)(=O)N[C@@H](CNC(=O)c1ccc(CCC(=O)NC2=NCCCN2)cc1)C(=O)O [Example 9, (2S)-2-(2-Methyl-propane-1-sulfonylamino)-3-(4-(2-(1,4,5,6-tetrahydropyrimidin-2-ylcarbamoyl)-ethyl)-benzoylamino)-propionic acid] | 69
20 | O=C(CCc1ccc(C(=O)NC[C@H](NS(=O)(=O)c2cccs2)C(=O)O)cc1)NC1=NCCCN1 [Example 18, (2S)-3-(4-(2-(1,4,5,6-Tetrahydropyrimidin-2-ylcarbamoyl)-ethyl)-benzoylamino)-2-(thiophene-2-sulfonylamino)-propionic acid] | 14
21 | O=C(CCc1ccc(C(=O)NC[C@H](NS(=O)(=O)c2ccc(Cl)cc2)C(=O)O)cc1)NC1=NCCCN1 [Example 13, (2S)-^2-(4-Chloro-benzenesulfonylamino)-3-(4-(2-(1,4,5,6-tetrahydropyrimidin-2-ylcarbamoyl)-ethyl)-benzoylamino)-propionic acid] | 27
22 | O=C(CCc1ccc(C(=O)NC[C@H](NS(=O)(=O)c2cccc(C(F)(F)F)c2)C(=O)O)cc1)NC1=NCCCN1 [Example 15, (2S)-3-(4-(2-(1,4,5,6-Tetrahydropyrimidin-2-ylcarbamoyl)-ethyl)-benzoylamino)-2-(3-trifluoromethyl-benzenesulfonylamino)-propionic acid] | 6
23 | Cc1cc(C)c(S(=O)(=O)N[C@@H](CNC(=O)c2ccc(CCC(=O)NC3=NCCCN3)cc2)C(=O)O)c(C)c1 [Example 21, (2S)-3-(4-(2-(1,4,5,6-Tetrahydropyrimidin-2-ylcarbamoyl)-ethyl)-benzoylamino)-2-(2,4,6-trimethyl-benzenesulfonylamino)-propionic acid] | 21
